Values after ≈ are worked out from the molar mass of the structure shown.
What was measured:
Format in all cases: cell-based, Mycobacterium tuberculosis
M. tuberculosis 27294 = test: In vitro agar dilution assay (MIC), reference strain; conditions: for MIC (μg/ml) against M. tuberculosis-27294: Table I; for MIC: Mycobacterium tuberculosis, 27294, Table I, read-out: MIC (μg/ml) against M. tuberculosis-27294
[1] = tested on: M. tuberculosis clinical isolates, sensitive; test: microbe, parasite or virus in culture; conditions: for MIC (μg/ml) against Clinical isolates Sensitive: Table I, agar dilution; for MIC: Mycobacterium tuberculosis, read-out: MIC (μg/ml) against Clinical isolates Sensitive
[2] = tested on: M. tuberculosis H37Rv ATCC 27294; test: In vitro growth inhibition assay, BACTEC 460 TB system; set-up: key: +: If ΔGI of test vial is less than that of the control vial the culture was sensitive to the test compound; conditions: final concentration 6.25 μg/ml

Compound	MIC (μg/ml) against M. tuberculosis-27294 (M. tuberculosis 27294) [µg/mL]	MIC (μg/ml) against Clinical isolates Sensitive [1] [µg/mL]	Growth inhibition of M. tuberculosis 27294 [2]	MIC (M. tuberculosis 27294) [µg/mL]	MIC [1] [µg/mL]
COc1ccccc1N1CCN(Cc2cc(-c3ccc(Cl)cc3)n(NC(=O)c3cnccn3)c2C)CC1 [compound 38, N-(5-(4-chlorophenyl)-3-{[4-(2-methoxyphenyl)piperazinyl]methyl}-2-methylpyrrolyl)pyrazin-2-ylcarboxamide]	>16.0	>16.0			
Cc1c(CN2CCN(c3ccc(F)cc3)CC2)cc(-c2ccccc2)n1NC(=O)c1ccncc1 [compound 11, N-(3-{[4-(4-fluorophenyl)piperazinyl]methyl}-2-methyl-5-phenylpyrrolyl)-4-pyridylcarboxamide]	1.0 (≈ 2.13 µM)	0.5 to 1.0	+		
Cc1c(CN2CCN(c3ccccn3)CC2)cc(-c2ccccc2)n1NC(=O)c1cnccn1 [compound 28, N-(3-{[4-(2-pyridyl)piperazinyl]methyl}-2-methyl-5-phenylpyrrolyl)pyrazin-2-ylcarboxamide]	2.0 (≈ 4.41 µM)	1.0 to 4.0			
Cc1c(CN2CCN(c3cccc(C(F)(F)F)c3)CC2)cc(-c2ccccc2)n1NC(=O)c1cnccn1 [compound 27, N-(3-{[4-(3-trifluoromethylphenyl)piperazinyl]methyl}-2-methyl-5-phenylpyrrolyl)pyrazin-2-ylcarboxamide]	2.0 (≈ 3.84 µM)	1.0 to 4.0	+		
Cc1c(CN2CCSCC2)cc(-c2ccccc2)n1NC(=O)c1ccncc1 [compound 21, N-[2-methyl-5-phenyl-3-(1,4-thiazaperhydroin-4-ylmethyl)pyrrolyl]-4-pyridyl carboxamide]	0.5 (≈ 1.27 µM)	0.5 to 1.0	+		
CCC(CO)n1c(C)c(CN2CCSCC2)c(CO)c1-c1ccccc1 (stereo not drawn) [compound 90, 2-[3-(hydroxymethyl)-5-methyl-2-phenyl-4-(1,4-thiazaperhydroin-4-ylmethyl)-pyrrolyl]butan-1-ol]	>16.0	>16.0			
Cc1ccc(Cl)cc1N1CCN(Cc2cc(-c3ccc(Cl)cc3)n(-c3ccc(Cl)cc3)c2C)CC1 [compound 10, 1-{[1,5-bis(4-chlorophenyl)-2-methylpyrrol-3-yl]methyl}-4-(5-chloro-2-methylphenyl) piperazine]			+	1 (≈ 1.91 µM)	1 to 2 (≈ 1.91 to 3.81 µM)
COc1ccccc1N1CCN(Cc2cc(-c3ccc(Cl)cc3)n(-c3cccc4ccccc34)c2C)CC1 [compound 59, 1-{[5-(4-chlorophenyl)-2-methyl-1-naphthylpyrrol-3-yl]methyl}-4-(2-methoxyphenyl)piperazine]	>16.0	>16.0			
Cc1c(CN2CCS(=O)(=O)CC2)cc(-c2ccccc2)n1-c1ccccc1 [compound 88]	0.5 (≈ 1.31 µM)	1.0 to 4.0	+		
Cc1c(CN2CCN(C(=O)c3ccco3)CC2)cc(-c2ccc(Cl)cc2)n1-c1ccc(Cl)cc1 [compound 7, 4-{[1,5-bis(4-chlorophenyl)-2-methylpyrrol-3-yl]methyl}piperazinyl-2-furyl-ketone]	4.0 (≈ 8.09 µM)	1.0 to 4.0	+		
COc1ccccc1N1CCN(Cc2cc(-c3ccc(Cl)cc3)n(-c3ccc(F)cc3F)c2C)CC1 [compound 45, 1-{[1-(2,4-difluorophenyl)-5-(4-chlorophenyl)-2-methylpyrrol-3-yl]methyl}-4-(2-methoxyphenyl)piperazine]			+	0.5 (≈ 0.984 µM)	0.5 to 2 (≈ 0.984 to 3.94 µM)
Cc1cc(CN2CCN(c3cccc(C(F)(F)F)c3)CC2)c(-c2ccccc2)n1NC(=O)c1cnccn1 [compound 33, N-(3-{[4-(3-trifluoromethylphenyl)piperazinyl]methyl}-5-methyl-2-phenylpyrrolyl)pyrazin-2-ylcarboxamide]	2.0 (≈ 3.84 µM)	2.0 to 8.0	+		
Cc1cc(CN2CCN(c3ccc(F)cc3)CC2)c(-c2ccccc2)n1NC(=O)c1ccncc1 [compound 22, N-(3-{[4-(4-fluorophenyl)piperazinyl]methyl}-5-methyl-2-phenylpyrrolyl)-4-pyridylcarboxamide]	2.0 (≈ 4.26 µM)	2.0 to 4.0	+		
Cc1c(CN2CCN(c3ccc(F)cc3)CC2)cc(-c2ccc(Cl)cc2)n1NC(=O)c1cnccn1 [compound 37, N-(5-(4-chlorophenyl)-3-{[4-(4-fluorophenyl)piperazinyl]methyl}-2-methylpyrrolyl)pyrazin-2-ylcarboxamide]	16.0 (≈ 31.7 µM)	8 to 16.0			
Cc1c(CN2CCN(c3cccc(C(F)(F)F)c3)CC2)cc(-c2ccc(Cl)cc2)n1-c1ccc(F)cc1F [compound 46, 1-{[1-(2,4-difluorophenyl)-5-(4-chlorophenyl)-2-methylpyrrol-3-yl]methyl}-4-(3-trifluoromethylphenyl)piperazine]			+	2 (≈ 3.66 µM)	2 to 4 (≈ 3.66 to 7.33 µM)
Cc1c(CN2CCN(c3ccccn3)CC2)cc(-c2ccc(Cl)cc2)n1-c1ccc(Cl)cc1 [compound 4, 1-{[1,5-bis(4-chlorophenyl)-2-methylpyrrol-3-yl]methyl}-4-(2-pyridyl) piperazine]			+	0.5 (≈ 1.05 µM)	0.25 to 1 (≈ 0.524 to 2.09 µM)
Cc1cc(CN2CCN(Cc3ccc4c(c3)OCO4)CC2)c(-c2ccccc2)n1NC(=O)c1cnccn1 [compound 35, N-(3-{[4-(2H-benzo[3,4-d]1,3-dioxolan-5-ylmethyl)piperazinyl]methyl}-5-methyl-2-phenylpyrrolyl)pyrazin-2-ylcarboxamide]	>16.0	>16.0	+		
Cc1cc(CN2CCN(c3cccc(C(F)(F)F)c3)CC2)c(-c2ccccc2)n1NC(=O)c1ccncc1 [Compound No. 23, N-(3-{[4-(3-trifluoromethylphenyl)piperazinyl]methyl}-5-methyl-2-phenylpyrrolyl)-4-pyridylcarboxamide]	0.25 (≈ 0.481 µM)	0.25 to 1.0	+		
Cc1cc(CN2CCN(c3ccc(F)cc3)CC2)c(-c2ccccc2)n1-c1ccc(F)cc1F [compound 55, 1-{[1-(2,4-difluorophenyl)-5-methyl-2-phenylpyrrol-3-yl]methyl}-4-(4-fluorophenyl) piperazine]				> 16	> 16
Cc1cc(CN2CCN(c3ccc(F)cc3)CC2)c(-c2ccc(Cl)cc2)n1NC(=O)c1cnccn1 [compound 41, N-(2-(4-chlorophenyl)-3-{[4-(4-fluorophenyl)piperazinyl]methyl}-5-methylpyrrolyl)pyrazin-2-ylcarboxamide]	>16.0	>16.0			
Cc1c(CN2CCN(c3cccc(C(F)(F)F)c3)CC2)cc(-c2ccccc2)n1-c1ccc(F)cc1F [compound 53, 1-{[1-(2,4-difluorophenyl)-2-methyl-5-phenylpyrrol-3-yl]methyl}-4-(3-trifluoromethylphenyl)piperazine]				> 16	> 16
Cc1cc(CN2CCN(c3cccc(C(F)(F)F)c3)CC2)c(-c2ccc(Cl)cc2)n1-c1cccc2ccccc12 [compound 64, 1-{[2-(4-chlorophenyl)-5-methyl-1-naphthylpyrrol-3-yl]methyl}-4-(3-trifluoromethylphenyl)piperazine]	>16.0	>16.0			
Cc1c(CN2CCCC2)cc(-c2ccccc2)n1NC(=O)c1ccncc1 [compound 19, N-[2-methyl-5-phenyl-3-(pyrrolidinylmethyl)pyrrolyl]-4-pyridylcarboxamide]	16.0 (≈ 44.4 µM)				
Cc1cc(CN2CCN(Cc3ccc4c(c3)OCO4)CC2)c(-c2ccccc2)n1NC(=O)c1ccncc1 [compound 24, N-(3-{[4-(2H-benzo[d]1,3-dioxolan-5-ylmethyl)piperazinyl]methyl}-5-methyl-2-phenylpyrrolyl)-4-pyridylcarboxamide]	8.0 (≈ 15.7 µM)		+		
COc1ccccc1N1CCN(Cc2cc(C)n(NC(=O)c3cnccn3)c2-c2ccccc2)CC1 [compound 32, N-(3-{[4-(2-methoxyphenyl)piperazinyl]methyl}-5-methyl-2-phenylpyrrolyl) pyrazin-2-ylcarboxamide]	>16.0	>16.0			
Cc1cc(CN2CCN(c3cccc(C(F)(F)F)c3)CC2)c(-c2ccc(Cl)cc2)n1NC(=O)c1cnccn1 [compound 43, N-(2-(4-chlorophenyl)-3-{[4-(3-trifluoromethylphenyl)piperazinyl]methyl}-5-methylpyrrolyl)pyrazin-2-ylcarboxamide]	>16.0	>16.0			
Cc1c(CN2CCN(c3ccc(F)cc3)CC2)cc(-c2ccccc2)n1-c1ccc(F)cc1F [compound 51, 1-{[1-(2,4-difluorophenyl)-2-methyl-5-phenylpyrrol-3-yl]methyl}-4-(4-fluorophenyl)piperazine]				> 16	> 16
